Converted amounts (≈) assume the structure as drawn. Like-named read-outs stand apart in the source and are kept apart here. No end group written: not given here.
Legend:
[1] = test system: S. symbiotica CWBI-2.3; assay: microbe, parasite or virus in culture; format: cell-based, Serratia symbiotica; details: broth microdilution (CLSI), 96-well polypropylene plates, 535 medium (Tripticase soy broth), 5 × 10^5 CFU/mL, 18 h, absorbance at 600 nm, two-fold dilutions 500 to 4 µg/mL, lowest concentration causing complete growth inhibition
Experimental: S. symbiotica strain CWBI-2.3, the only aphid symbiotic bacterium that can be cultivated in the laboratory, was purchased from the Leibniz Institute DSMZ (Braunschweig, Germany) and cultivated as recommended by the supplier. MICs were determined according to the CLSI guidelines using a broth microdilution assay in 96-well polypropylene microtiter plates. The bacteria were cultivated overnight at 28 °C using 535 medium (Tripticase soy broth) and diluted to 5 × 10^5 CFU/mL in broth. The AMPs were dissolved in water to a concentration of 4 mg/mL and a series of two-fold dilutions was prepared in 535 broths, ranging from 500 to 4 µg/mL. S. symbiotica CWBI-2.3 in an unmodified medium was used as a positive control, and blanks were prepared with medium only or with medium and water (the latter to exclude any possible negative effect of water on the bacteria). The bacteria were incubated for 18 h and the absorbance at 600 nm was recorded every 20 min. The MICs were defined as the lowest concentrations of AMP causing complete bacterial growth inhibition.

[2] = test system: B. aphidicola; assay: FISH localization of symbiont in treated aphid nymphs; format: in vivo, Buchnera aphidicola in Acyrthosiphon pisum; details: highest concentration of each AMP, control treatments
Experimental: (§1) FISH was carried out as previously described, with slight modifications. Treated A. pisum nymphs were fixed for three days in Carnoy’s solution (6:3:1 […]:glacial acetic acid) and then bleached in 6% H2O2 in 96% ethanol for 1 week. After bleaching, samples were washed in 100% ethanol and then hybridized overnight in hybridization buffer (20 mM Tris-HCl pH 8.0, 0.9 M NaCl, 0.01% sodium dodecylsulfate, 30% formamide) containing 100 nM of each fluorescent probe and 500 nM DAPI. After hybridization, samples were rinsed three times with phosphate buffered saline containing 0.3% Triton X-100 and viewed under a Leica TCS SP8 confocal microscope (Leica Microsystems, Wetzlar, Germany). We analysed a minimum of 20 samples from each treatment. The specificity of detection was confirmed using controls with no probe and specimens were pre-treated with RNase.

[3] = test system: S. symbiotica; assay: as above; format: in vivo, Serratia symbiotica in Acyrthosiphon pisum
Experimental: as §1

[4] = test system: A. pisum; format: in vivo, Acyrthosiphon pisum; details: for % Survival: after three days of feeding, 48 h old nymphs, ten per chamber, five replicates, control AP3 diet survival = 90%; for Kaplan-Meier analysis: Mean, Estimate (survival time): three days of feeding, control 2.880, estimation limited to the largest survival time if censored
Experimental: (§2) A. pisum nymphs (48 h old) were fed for three days on an artificial AP3 diet in modified chambers. The AP3 diet was mixed with the corresponding AMP or control treatment. Ten nymphs were placed in each chamber and five replicates were included per treatment. AMPs were tested at three different concentrations: 50, 250, and 500 µg/mL. Untreated aphids were fed on the control AP3 diet. Positive control treatments comprised aphids fed on the AP3 diet supplemented with the insecticide imidacloprid (5 µg/mL) or the antibiotic rifampicin (50 µg/mL) (Sigma-Aldrich, Taufkirchen, Germany). Imidacloprid is strongly hydrophobic, and was therefore prepared first as a highly concentrated stock (1000 µg/mL) in acetone and working solutions were diluted in the AP3 diet. The corresponding control (AP3 + acetone) was tested on the aphids, and survival was not affected when compared to AP3 diet alone or AP3 diet diluted with water (data not shown). Mortality was scored after 24, 48, and 72 h of feeding. Aphids that survived the three-day treatment were transferred to agar plates containing bean plant leaves and reared for another two weeks in order to determine the impact of the diets on survival and reproduction.
All data were analysed using SPSS v17.0 software (SPSS Inc., Chicago, IL, USA) and statistical significance was defined as p < 0.05. For mortality assessment, we used non-parametric survival analysis (Kaplan-Meier) and multiple pairwise comparisons among different groups were carried out using log-rank tests to assess efficiency. The total number of offspring, time to reproduction, and relative numbers of bacterial symbionts were analysed using the Wilcoxon ranked sum test for non-parametric data and a paired t-test for parametric data.

[5] = test system: B. aphidicola; assay: qPCR relative quantification of symbiont in treated aphids; format: in vivo, Buchnera aphidicola in Acyrthosiphon pisum; details: 50 µg/mL
Experimental: (§3) The density of the B. aphidicola and S. symbiotica populations in vivo was determined by qPCR. Genomic DNA was extracted from pools of five aphids, as previously described. Three biological replicates were prepared per treatment. Amplifications were carried out using a StepOnePlus™ Real-Time PCR System (Applied Biosystems, Waltham, MA, USA). The reaction volume was 10 μL, comprising 2 μL of template DNA (25 ng/μL), 10 μM of each specific primer and 5 μL of SYBR Green PCR Master Mix (Applied Biosystems). Each reaction was heated to 95 °C for 10 min, followed by 40 cycles of 95 °C for 15 s and 60 °C for 60 s. Melting curve analysis was performed by increasing the temperature from 60 °C to 95 °C for 15 s, cooling to 60 °C for 60 s and heating to 95 °C for 15 s. […] Relative abundance values for each symbiont were calculated by comparing the threshold cycle (Ct) of each target gene to that of the aphid ribosomal protein L32 gene and efficiencies were calculated using LinReg PCR software.
(§4) All data were analysed using SPSS v17.0 software (SPSS Inc., Chicago, IL, USA) and statistical significance was defined as p < 0.05. […] The total number of offspring, time to reproduction, and relative numbers of bacterial symbionts were analysed using the Wilcoxon ranked sum test for non-parametric data and a paired t-test for parametric data.

[6] = test system: A. pisum; assay: Aphid reproduction after AMP feeding (time to reproduction, number of offspring); format: in vivo, Acyrthosiphon pisum; details: 50 µg/mL for three days; surviving aphids followed two weeks
Experimental: The effect of each AMP on A. pisum reproduction was determined by counting the number of offspring and recording the delay before reproduction in surviving aphids for two weeks after treatment (Figure 2).
as §2, with “The corresponding control (AP3 + acetone) was tested on the aphids, and survival was not affected when compared to AP3 diet alone or AP3 diet diluted with water (data not shown).” left out, “Aphids that survived the three-day treatment were transferred to agar plates containing bean plant leaves and reared for another two weeks in order to determine the impact of the diets on survival and reproduction.” left out
as §4

[7] = test system: S. symbiotica; assay: qPCR relative quantification of symbiont in treated aphids; format: in vivo, Serratia symbiotica in Acyrthosiphon pisum; details: 50 µg/mL
Experimental: as §3, §4

[8] = test system: green peach aphid Myzus persicae (Sulzer); design: method as in doi:10.1111/j.1439-0418.2006.01117.x; details: cited from earlier work
[9] = test system: Escherichia coli; details: cited from earlier work
[10] = after three days of treatment, compared to control AP3 diet, pools of five aphids, three biological replicates
[11] = two weeks after treatment, data not shown

Molecule: GFWGKLWEGVKNAI-NH2 [UyCT1]
- MIC (In Vitro) [1]: 125 µg/mL

Molecule: GNRPVYIPPPRPPHPRL-NH2 [Apidaecin]
- MIC (In Vitro) [1]: >500 µg/mL

Molecule: CO[C@H]1/C=C/O[C@@]2(C)Oc3c(C)c(O)c4c(O)c(c(/C=N/N5CCN(C)CC5)c(O)c4c3C2=O)NC(=O)/C(C)=C\C=C\[C@H](C)[C@H](O)[C@@H](C)[C@@H](O)[C@@H](C)[C@H](OC(C)=O)[C@@H]1C [Rifampicin]
- MIC ([1]; Serratia symbiotica, CWBI2.3, read-out: MIC (In Vitro)): 50 µg/mL (≈ 60.8 µM)
- intensity of the B. aphidicola FISH signal ([2]; aphid nymphs, 24 and 48 h after exposure): neither the AMPs nor rifampicin reduced the intensity of the signal
- S. symbiotica FISH signal ([3]; 48 h after exposure, highest concentration of each AMP, control treatments, minimum of 20 samples per treatment): reduced the S. symbiotica signal
- survival during the two weeks after treatment ([4]; 50 µg/mL for three days, survivors monitored for the following two weeks on bean leaves, data not shown): did not affect aphid survival
- % Survival ([4]; 50 µg/mL in AP3 diet): 92.5%
- Kaplan-Meier analysis: Mean, Estimate (survival time) ([4]; 50 µg/mL): 2.925
- density of B. aphidicola (qPCR, relative abundance) [5, 10]: significant reduction
- density of B. aphidicola (qPCR) [5, 11]: significant reduction
- number of offspring [6]: hardly any offspring
- density of S. symbiotica (qPCR, relative abundance) [7, 10]: significant reduction
- density of S. symbiotica (qPCR) [7, 11]: significant reduction

Molecule: FFSALLSGIKSLF-NH2 [Um4]
- MIC (In Vitro) [1]: >500 µg/mL

Molecule: FPFLKLSLKIPKSAIKSAIKRL-NH2 [D10]
- MIC (In Vitro) [1]: >500 µg/mL

Molecule: LWGKLWEGVKSLI-NH2 [D3]
- MIC (In Vitro) [1]: 250 µg/mL

Molecule: GFWGKLWEGVKNAIKKK-NH2 [D11]
- MIC (In Vitro) [1]: >500 µg/mL

Molecule: FLSTIWNGIKGLL-NH2 [Uy192]
- MIC (In Vitro) [1]: 500 µg/mL

Molecule: O=[N+]([O-])NC1=NCCN1Cc1ccc(Cl)nc1 [Imidacloprid]
- localization of the B. aphidicola FISH signal ([2]; 48 h after treatment): did not affect the localization of the bacterial symbionts
- localization of the S. symbiotica FISH signal ([3]; 24 and 48 h after exposure, control treatment): did not affect the localization of the bacterial symbionts
- % Survival ([4]; 5 µg/mL in AP3 diet): 0%
- Kaplan-Meier analysis: Mean, Estimate (survival time) ([4]; 5 µg/mL): 1.960

Molecule: RGFRKHFNKLVKKVKHTISETAHVAKDTAVIAGSGAAVVAAT-NH2 [Stomoxyn]
- MIC (In Vitro) [1]: >500 µg/mL

Molecule: FPFLLSLIPSAISAIKRL-NH2 [Uy234]
- MIC (In Vitro) [1]: >500 µg/mL

Molecule: GFWGKLLEGVKKAI-NH2 [D5]
- MIC (In Vitro) [1]: 500 µg/mL

Molecule: ILSAIWSGIKSLF-NH2 [UyCT3]
- MIC (In Vitro) [1]: 125 µg/mL

Molecule: indolicidin: an AMP from bovine neutrophils (ILPWKWPWWPWRR; ends and bridges not checked; UniProt P33046 131-143, looked up)
- activity against Myzus persicae [8]: showed activity
- activity against Escherichia coli [9]: showed activity

Molecule: ILSAIWSGIKGLL-NH2 [Uy17]
- MIC (In Vitro) [1]: 250 µg/mL

Molecule: IWSAIWSGIKGLL-NH2 [UyCT5]
- MIC (In Vitro) [1]: 125 µg/mL
- nymphs killed after the first day ([4]; in vivo, 48 h, 500 µg/mL): 10%

— publication PMC5618194, “Orally Delivered Scorpion Antimicrobial Peptides Exhibit Activity against Pea Aphid (Acyrthosiphon pisum) and Its Bacterial Symbionts” (Toxins, 2017)
